One compound from patent US20090196885A1, “Cancer Treatment” (National Health Research Institutes, priority 2005, published 2009) can be followed below.

The subject of this test is Hep G2 hepatoma cells. Briefly: In vitro cancer cell proliferation assay (sulforhodamine B), Hep G2. The test is classed as cell-based. The conditions noted are these: Homo sapiens, HepG2, 144 h; lovastatin 2 μM alone; incubation for 6 days; read-out: inhibited growth of Hep G2 cells. The procedure:
Hep G2 hepatoma cells were seeded in a 96-well culture plate (2000 cells/well) and cultured overnight in 100 μl of complete DMEM.

Regarding `CC[C@H](C)C(=O)O[C@H]1C[C@@H](C)C=C2C=C[C@H](C)[C@H](CC[C@@H]3C[C@@H](O)CC(=O)O3)[C@H]21` [lovastatin], the inhibition at 2 µM stood at 11.5%.
